Reference: the supplement of paper PMC10878532, “Sperm Toolbox—A selection of small molecules to study human spermatozoa” (PLOS ONE, 2024)
Counter-ions that a name gives are not always drawn.

Legend:
HeLa [1] = experiment: HeLa toxicity: nuclei-count effect normalised to DMSO (DMSO = 0); higher = more features changed / larger toxic effect; conditions: incubation time: 24h incubation
HepG2 = HepG2 toxicity (resazurin), effect normalised to DMSO (DMSO = 0); higher = more features changed / larger toxic effect; conditions: incubation time: 70h incubation
human spermatozoa [2] = experiment: total motile sperm, percent change vs DMSO (non-capacitating); higher = more of the measured sperm population than DMSO, for viability, fewer PI-positive (dead) cells than DMSO
human spermatozoa [3] = experiment: progressively motile sperm, percent change vs DMSO (capacitating); higher = more of the measured sperm population than DMSO, for viability, fewer PI-positive (dead) cells than DMSO; conditions: incubation time: 30min incubation
human spermatozoa [4] = experiment: change in acrosome-reacted (PNA+) sperm vs DMSO, no agonist (capacitating); higher = more of the measured sperm population than DMSO, for viability, fewer PI-positive (dead) cells than DMSO; conditions: incubation time: 3h
HeLa [5] = experiment: Cell Painting percent induction (share of features beyond 2 z-scores vs DMSO); higher = more features changed / larger toxic effect; extreme values may be limits of the assay; conditions: incubation time: 24h incubation
human spermatozoa [6] = experiment: hyperactivated motile sperm, percent change vs DMSO (capacitating); higher = more of the measured sperm population than DMSO, for viability, fewer PI-positive (dead) cells than DMSO; conditions: incubation time: 30min incubation
human spermatozoa [7] = experiment: progressively motile sperm, percent change vs DMSO (non-capacitating); higher = more of the measured sperm population than DMSO, for viability, fewer PI-positive (dead) cells than DMSO; extreme values may be limits of the assay
human spermatozoa [8] = experiment: viability fold change, 1 - (PI-positive fraction / DMSO median); higher = more of the measured sperm population than DMSO, for viability, fewer PI-positive (dead) cells than DMSO; conditions: incubation time: 3h, non-capacitating
human spermatozoa [9] = experiment: acrosome-reacted (PNA+) sperm after agonist cocktail, percent change vs DMSO (capacitating); higher = more of the measured sperm population than DMSO, for viability, fewer PI-positive (dead) cells than DMSO; conditions: incubation time: 3h, capacitating + agonist cocktail 1h
[10] = incubation time: 10min incubation, 9.99 µM
[11] = incubation time: 10min incubation, 29.9 µM
[12] = incubation time: 3h incubation, 9.99 µM
[13] = incubation time: 3h incubation, 29.9 µM
[14] = incubation time: 6h incubation, 9.99 µM
[15] = incubation time: 6h incubation, 29.9 µM
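Wherever progressively motile sperm, percent change vs DMSO (non-capacitating) is given: pooled live human sperm from at least 3 donors, tracked by automated microscopy in 0.5 s time-lapse movies, compounds at 10 and 30 µM, versus median of 16 DMSO wells per plate.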
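Wherever total motile sperm, percent change vs DMSO (non-capacitating) is given: sperm pooled from at least 3 donors, tracked in 0.5 s time-lapse movies by automated microscopy after 10 min, 3 h or 6 h with compound at 10 or 30 µM.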

SMILES	HeLa toxicity: nuclei-count effect normalised (HeLa [1]; 9.99 µM) [%]	HeLa toxicity: nuclei-count effect normalised (HeLa [1]; 29.9 µM) [%]	HepG2 toxicity (HepG2; 10 µM) [%]	HepG2 toxicity (HepG2; 30 µM) [%]	total motile sperm (human spermatozoa [2]; [10]) [%]	total motile sperm (human spermatozoa [2]; [11]) [%]	total motile sperm (human spermatozoa [2]; [12]) [%]	total motile sperm (human spermatozoa [2]; [13]) [%]	total motile sperm (human spermatozoa [2]; [14]) [%]	total motile sperm (human spermatozoa [2]; [15]) [%]	progressively motile sperm (human spermatozoa [3]; 9.99 µM) [%]	progressively motile sperm (human spermatozoa [3]; 29.9 µM) [%]	change in acrosome-reacted (human spermatozoa [4]; 9.99 µM) [%]	change in acrosome-reacted (human spermatozoa [4]; 29.9 µM) [%]	Cell Painting percent induction (HeLa [5]; 9.99 µM) [%]	Cell Painting percent induction (HeLa [5]; 29.9 µM) [%]	hyperactivated motile sperm (human spermatozoa [6]; 9.99 µM) [%]	hyperactivated motile sperm (human spermatozoa [6]; 29.9 µM) [%]	progressively motile sperm (human spermatozoa [7]; [10]) [%]	progressively motile sperm (human spermatozoa [7]; [11]) [%]	progressively motile sperm (human spermatozoa [7]; [12]) [%]	progressively motile sperm (human spermatozoa [7]; [13]) [%]	progressively motile sperm (human spermatozoa [7]; [14]) [%]	progressively motile sperm (human spermatozoa [7]; [15]) [%]	viability fold change (human spermatozoa [8]; 9.99 µM)	viability fold change (human spermatozoa [8]; 29.9 µM)	acrosome-reacted (human spermatozoa [9]; 9.99 µM) [%]	acrosome-reacted (human spermatozoa [9]; 29.9 µM) [%]
c1ccc2c(c1)SCc1c-2[nH]c2ccccc12	83.9	99.3	10.5	102	-62	-88.1	-66.5	-92.9	-54.6	-91.4	-60.3	-95.6	0.192	0.819	30.2	46	-56.3	-84.3	-81.3	-99.9	-74.4	-100	-76	-99.9	0.409	0.115	3.76	-34.5
CC1(C)CC=C(c2ccccc2)c2cc(/C=C/c3ccc(C(=O)O)cc3)ccc21	6.08	8.35	0.925	-8.39	2.52	2.83	0.861	0.353	-4.19	0.705	-4.62	-9.29	1.18	1.38	0	0	-3.7	-30.1	8.04	5.98	18.8	9.32	6.74	13	-1.22	-0.368	10.6	7.54
Cc1ccc(S(=O)(=O)c2ccc([N+](=O)[O-])o2)cc1	83	88.8	103	103	-0.166	-5.06	-76.8	-91.9	-86.5	-92.7	-9.29	-10.6	3.49	4.92	18.5	9.8	3.4	0.123	-30.4	-44.1	-96.9	-100	-99.3	-100	-1.25	-1.57	81	103
CCCCCCCCOc1ccc(-c2noc([C@@H]3CCCN3C(=N)N)n2)cc1C(F)(F)F	35.1	82.8	8.34	102	0.514	-52.9	-72.1	-92.8	-86.2	-93.7	-6.84	-99.7	46.2	70.7	15.4	6.63	-41.8	-89.2	19.2	-91.9	-94.9	-100	-99.9	-99.9	-1.83	-2.7	114	138
CN(c1ccccc1CNc1nc(Nc2ccc3c(c2)CC(=O)N3)ncc1C(F)(F)F)S(C)(=O)=O	81.5	90.7	95.1	90.2	-4.4	-6.03	-7.55	-13.4	-11	-16.3	-2.37	-3.01	0.291	0.085	8.65	17.7	41.5	-30.2	20.2	16.8	29.9	21.7	40.3	24.4	-1.76	-1.35	-10.6	-8.83
COc1cc(N2CCOCC2)ccc1Nc1ncc(F)c(Nc2ccccc2NS(C)(=O)=O)n1	12	70.3	11.9	14	-2.71	-11.9	-6.38	-20.1	-5.57	-17.4	-10.8	-4.79	0.77	-0.256	0.324	14.1	7.89	-19.1	-27.7	-60.9	-32.8	-74.5	-27	-69.7	0.0946	0.0988	-20.4	-26.8
CCc1cc(Nc2nccc(-c3c(-c4ccc(OC)c(C(=O)Nc5c(F)cccc5F)c4)nc4ccccn34)n2)c(OC)cc1N1CCC(N2CCN(S(C)(=O)=O)CC2)CC1	4.68	-3.87	3.43	-1.34	-4.19	-0.876	-8.85	-6.8	-6.63	-13	-19.6	-24.3	0.271	-0.0593	0	0.036	-15.3	-19	4.67	2.77	36.3	31.8	50.7	33.6	0.344	0.176	-8.69	2.76
O=C(c1cccs1)c1no[n+]([O-])c1C(=O)c1cccs1	36.5	82	103	103	1.03	2.49	-13.1	-40.1	-30.5	-54.9	0.304	-15.7	1.47	2.4	0.216	14.3	-32.4	-81.3	-17	-39.6	-29.1	-78.3	-50.4	-91.5	-0.427	-1.21	-24.1	-23.9
Nc1nonc1C(=O)c1cccc(OCc2nc3ccccc3[nH]2)c1 [ASI-8]	-5.48	1.8	7.95	-4.37	3.13	2.79	1.2	-0.414	3.96	1.2	11.1	6.99	0.432	0.568	0.036	0.072	-38	-39.8	-2.86	-2.99	-14.7	-20.6	-17.4	-29.2	-0.34	-0.223	-14.8	-14.9
NC(=O)Nc1cc(-c2cccc(F)c2)sc1C(=O)N[C@H]1CCCNC1 [AZD 7762 hydrochloride]	80.1	76.8	101	101	-11.3	-17.4	-10.7	-22.4	-13.2	-23.1	-19.7	-30.7	0.07	1.03	17	11	-57.9	-72	-49.3	-57.6	-35.4	-48.7	-30.8	-49.2	-0.829	-1.22	-44.6	-44
CCCCC(CC)C/N=C(\N)N/C(N)=N/CCCCCC/N=C(\N)N/C(N)=N/CC(CC)CCCC (stereo unspecified) [Alexidine dihydrochloride]	82.5	57.3	89.8	103	-25.4	-91.3	-92.5	-89.6	-92.8	-89.2	-95.3	-100	65.4	86.5	4.11	13.2	-81.6	-86.5	-63.3	-99.9	-99.9	-100	-100	-100	-2.59	-3.31	148	214
COc1cc2nc(N(C)CCCNC(=O)C3CCCO3)nc(N)c2cc1OC (stereo unspecified) [Alfuzosin]	5.08	0.668	-1.03	4.29	-4.58	-4.17	-0.419	-6.01	-5.29	-6.7	16	9.67	-0.201	-0.552	0	0	37.3	5.32	0.477	-1.83	14.5	16.4	16.7	20.9	-0.036	-0.0945	-3.12	0.779
CCCCC/C=C\C/C=C\C/C=C\C/C=C\CCCC(=O)NCCO [Anandamide]	3.27	22.7	4	-4.04	0.0733	1.31	-5.97	0.46	-4.78	-4.35	5.07	5.94	0.407	0.71	0	0	-8.05	-17.2	0.835	4.89	8.76	18.1	15.3	17.7	-1.03	-1.89	-2.45	-3.7
Cn1c(=O)c2c(-c3ccccc3)n3c(c2n(C)c1=O)[C@H](c1ccc(Br)o1)Oc1ccc(C(=O)O)cc1-3 [BPO-27]	-5.61	-3.14	6.74	-5.25	-0.595	-2.15	1.67	-2.1	2.71	-8.78	-0.551	-1.51	0.114	-0.202	0.901	0	26.2	0.866	4.77	14.7	32.6	41.5	37.8	42.7	-0.786	-0.502	6.48	12.2
Oc1c(Cl)cc(Cl)cc1Sc1cc(Cl)cc(Cl)c1O [Bithionol]	-4.61	21.5	7.02	59.3	3.44	1.84	1.98	-0.0801	2.41	-5.59	2.24	1.88	0.572	1.65	0	0.036	4.13	7.86	3.11	-10.9	11.4	-27.5	17.4	-30.7	0.0494	0.376	1.08	-1.64
NC(=O)c1cc(-c2ccc(S(=O)(=O)[C@H]3CC[C@H](Nc4ccc(C(F)(F)F)cn4)CC3)cc2)ccn1 [CCR6 inhibitor 1]	38.5	82.3	93.6	97.6	-1.18	-0.388	-10.1	-17.5	-12.7	-30	4.84	-2.5	0.47	1.33	0.144	1.51	0.384	-27	20.1	23	25.5	9.27	37.7	-18.5	-1.3	-0.257	47.9	31
O=C(O)c1ccc(/C=C2/SC(=S)N(c3cccc(C(F)(F)F)c3)C2=O)cc1 [CTFRinh-172]	0.134	4.28	10.5	-1.68	-0.0195	0.898	0.0108	-0.0432	-7.63	-1.41	-6.92	-8.59	0.257	-0.529	1.51	2.67	-0.45	-19.9	3.85	-3.67	4.25	3.7	-2.41	3.06	-0.401	-0.284	2.51	5.75
